Measurements reported in patent publication US10208007B2, “Use of strigolactones and strigolactone analogs for treating proliferative conditions” (The State of Israel, Ministry of Agriculture & Rural …, priority 2011, dated 2019).

Key:
Type in all cases: cell-based, human
HCT116 cells = assay: Annexin V / PI staining; conditions: 48 hours, from 3.6%
Description: Cells were cultured for 48 hours under the same conditions as those used for the DNA content/cell cycle analysis. All the cells were collected and resuspended in 100 μl 1× Annexin V Binding Buffer (BD Biosciences, San Jose, Calif., USA). 2 μl FITC-Annexin V (BD Biosciences) was added and incubated for 10 min in the dark (room temperature). Cells were then stained with PI (Sigma, Saint Louis, Mo., USA) to a final concentration of 5 μg/ml and the cells were incubated at room temperature for 15 min in the dark. Then, 400 μl of Annexin V binding buffer were added and flow cytometry was performed using a BD FACSCalibur flow cytometer. Cells were considered to be apoptotic if they were Annexin V+/PI− (early apoptotic) and Annexin V+/PI+ (late apoptotic). Each analysis was performed using at least 20,000 events.
Chromosome condensation at mitosis is accompanied by phosphorylation of histone H3. Accordingly, in order to determine if cells were arresting at G2 or M phase, HCT116 cells were analyzed for pS10 Histone H3 following strigolactone analogs exposure. […] To further quantify whether the growth inhibition observed in-vitro following strigolactone treatment was due in part to apoptosis, HCT116 cells were dual stained with Annexin V and PI (Prodidium Iodide). Annexin V staining indicate the inversion of the inner leaflet of the plasma membrane an early event of apoptosis. Late apoptosis is characterized by loss of membrane integrity and cells become permeable to PI. […] Cells were incubated for 48 hours and then co-stained with annexin-V and PI (FIG. 12F). Following treatment with 10 ppm and 15 ppm MEB-55, the percentage of late apoptotic cell increased from 3.6% to 62% and 85% respectively (FIG. 12F, lower panel). […] Dual Annexin V/PI staining analysis was also carried out on two other colon cancer cell lines, (SW480, HT29) following strigolactone treatment. Increased apoptosis was also observed in these lines following MEB-55 treatment in a dose dependent manner (FIG. 12D).

pERK1/2 = assay: Immunoblot with densitometric quantification; conditions: DU145, after 1 hour
Description: (§1) Protein concentration was determined using the BCA Protein Assay (Pierce), and 20-50 μg of lysate were separated in a 4-12% SDS-PAGE gel. After transfer, membranes were blocked for 15-30 min at room temperature in 5% BSA (Sigma) in Tris-buffered saline containing 0.1% Tween-20. Primary antibody was incubated for either 1.5 hours at room temperature or overnight at 4° C. Secondary antibody was incubated for 30-45 min at room temperature, and proteins were visualized with West Pico Stable (Pierce). All antibodies were used at 1:1000 dilution unless otherwise stated. pT308AKT, AKT, pT180/Y182, pT183/Y185 P38MAPK, pP38MAPK, pT202/Y204 pERK1/2, ERK1, pT183/Y185, pJNK1/2, JNK1, pT71ATF2, pT581MSK1, pT14 Cdc2, Cdc2, pT68Chk2 (cell signaling), pT334MAPKAPK, pS82HSP27 (Cell Signaling Technology, Danvers, Mass.), α-tubulin (Biomarkers, 1:50,000), Cyclin B1 (Santa Cruz Biotechnologies) and horseradish peroxidase-conjugated anti-rabbit IgG and anti-mouse IgG (1:5,000, Pierce).
(§2) Densitometric quantifications were carried out using ImageJ software (NIMH).
(§3) To investigate the signaling mechanisms elicited by strigolactone analogs in cancer cells, MDA-MB-231, DU145 and HCT116 cells were treated with strigolactone analogs for 1, 4 or 8 hours and lysates were analyzed by immuno-blotting. The family of MAPK enzymes plays a pivotal role in cell growth, survival and cellular stress responses. The best characterized MAPKs fall into three families: (i) the mitogen activated extracellular signal regulated kinases (ERK1/2) which are activated in response to positive proliferation signals, (ii) c-Jun amino (N)-terminal kinases (JNK1/2/3) and (iii) p38 isoforms (p38α, β, γ, δ), all are activated by environmental stress stimuli such as DNA damage, UV irradiation and inflammatory cytokines.

JNK1/2 phosphorylation = assay: Immunoblot with densitometric quantification
Description: as §1, §2, §3

Cyclin B1 mRNA = assay: Quantitative Real-time PCR of Cyclin B1 mRNA
Description: Primers were designed using PrimerQuest software (Integrated DNA Technologies). RNA was extracted using Trizol (Invitrogen, Carlsbad, Calif., USA) using the manufacturer's protocol. 1 μg RNA was reverse-transcribed in a total volume of 20 μl using the Superscript First strand cDNA synthesis kit (Invitrogen). PCR was performed in triplicate using an ABI-Prism 7900 instrument (Applied Biosystems, Foster City, Calif.) and SYBR Green I detection (Applied Biosystems) according to the manufacturer's protocol. The expression of each target gene was normalized to the expression of GAPDH RNA and is presented as the ratio of the target gene to GAPDH RNA, expressed as 2-ΔCt, where Ct is the threshold cycle and ΔCt=Ct Target−Ct GAPDH.
No change in cyclin B1 levels were detected at earlier time points. The dephosphorylation of Cdk1 (Cdc2) at Thr14 is a critical event for its activation, permitting mitotic entry. Cdk1 protein levels remained unaltered, as did pT14Cdc2 levels (FIG. 17B). Quantitative Real-time PCR was carried out to determine whether Cyclin B1 inhibition was partially at the transcriptional level.

DU145 = assay: Cell cycle analysis with strigolactone removal; conditions: for G2/M fraction: 24 hours, from 18%; for G2/M fraction 48 hours following removal: vehicle control 28.5%
Description: Adherent cells were trypsinyzed, washed twice with PBS and filtered through a […] cell sieve. DNA content was assessed by flow cytometry. Cells were seeded at densities of 1.5×10^5 cells (MDA-MB-231, MDA-MB-436), or 4×10^5 cells (MCF-7 and MCF10A), or 2×10^5 cells (SW480, HT-29), or 5×10^5 cells (HCT116), per well in DMEM with 10% FBS in 6-well plate culture dishes. […] After 48 hours, cells were washed twice with PBS (pH 7.4), centrifuged at 360 g for 10 minutes at 4° C., and fixed in chilled ethanol (70%; v/v in PBS) with gentle vortex mixing. To determine their DNA contents, the cells were stained with 40 μg/ml propidium iodide (hereinafter PI) and analyzed using a FACSCalibur flow cytometer and CellQuest analysis software (Becton Dickinson, San Jose, Calif.). Where phosphoHistone-H3 staining was carried out, cells were incubated with polyclonal antibody against phosphoHistone H3 and then with secondary Goat anti-rabbit IgG-conjugated to FITC prior to PI staining.
To determine whether the strigolactone analogs induced G2 arrest, is also reversible upon strigolactone removal, DU145 cells were treated with MEB-55 for 24 hours, washed twice in PBS and then over-layed with fresh growth media minus MEB-55 and incubated for a further 48 hours (FIG. 17G).

Compound: CC1=CC(O/C=C2\Cc3c(n(C)c4cc(-c5cccs5)ccc34)C2=O)OC1=O (racemic) [MEB-55, (±) 2E-4-methyl-2-(4-methyl-5-oxo-2,5-dihydrofuran-2-yloxymethylene)-6-thiophen-2-yl-1,4-dihydro-2H-cyclopenta[b]indol-3-one]
- Percentage of late apoptotic cells (Annexin V+/PI+) (HCT116 cells; 10 ppm): 62%
- Percentage of late apoptotic cells (Annexin V+/PI+) (HCT116 cells; 15 ppm): 85%
- pERK1/2 levels reduction (pERK1/2): 4 fold
- JNK1/2 phosphorylation increase (JNK1/2 phosphorylation; DU145, 4 hours): 15 fold
- Decrease of JNK1/2 phosphorylation from the 4 hours level (JNK1/2 phosphorylation; DU145, 8 hours): 50%
- Cyclin B1 mRNA compared to vehicle controls (Cyclin B1 mRNA; A549, 10 ppm): two fold decrease
- Cyclin B1 mRNA compared to vehicle controls (Cyclin B1 mRNA; HCT116, 10 ppm): two fold decrease
- G2/M fraction (DU145; DU145, 5 ppm): 46%
- G2/M fraction 48 hours following removal (DU145; DU145, 5 ppm): 29%
- G2/M fraction (DU145; DU145, 10 ppm): 50%
- G2/M fraction 48 hours following removal (DU145; DU145, 10 ppm): 29%
